The subject of experiment [1] is common waterhemp, Non-Target Site Resistant "ACR" Population. Briefly: Greenhouse dose-response, effective dose on atrazine-resistant waterhemp. The experiment is classed as in vivo, Amaranthus tuberculatus. To be noted: 13 days after treatment, visual scale 0-100.
Experiment [2] concerns common waterhemp, Non-Target Site Resistant "MCR" Population. The description is as above. The experiment is classed as in vivo, Amaranthus tuberculatus. To be noted: 13 days after treatment, visual scale 0-100.

With `CCNc1nc(Cl)nc(NC(C)C)n1` [Atrazine (480 g/L FL), Atrazine], in experiment [1], the “ED 20 Estimate” value is reported as 6.782 g ai/ha and the “ED 80 Estimate” value is listed as 768.664 g ai/ha. In experiment [2], the “ED 20 Estimate” value is listed as 20.856 g ai/ha and the “ED 80 Estimate” value is on record as 793.705 g ai/ha.

(Values after US20250248402A1, “HERBICIDAL COMPOSITIONS AND METHODS FOR CONTROLLING WEEDS” (UPL Mauritius Limited, priority 2024, published 2025).)
